Source: the Bradley open melting point set (2014)
Where “and” joins values, the source holds several entries; their conditions need not be identical. Identical values can stand only once. Counter-ions that a name gives are not always drawn.

SMILES	melting point
ClC(Cl)Cl [chloroform]	-63 °C
c1ccc2c(c1)ccc1c3ccccc3ccc21 [chrysene]	254 °C
C=C[C@H]1C[N@@]2CC[C@H]1C[C@H]2[C@H](O)c1ccnc2ccccc12 [cinchonidine]	204 °C
C=C[C@H]1C[N@@]2CC[C@H]1C[C@@H]2[C@@H](O)c1ccnc2ccccc12 [cinchonine]	258 °C
O=C(O)[C@H]1CCCC[C@H]1C(=O)O [cis-1,2-cyclohexanedicarboxylic acid]	191 °C
OC/C=C\CO [cis-2-butene-1,4-diol]	7 °C
O=C1OC(=O)C2C3C=CC(C3)C12 (stereo not drawn) [cis-5-norbornene-endo-2,3-dicarboxylic anhydride]	166 °C
C1CC[C@H]2CCCC[C@H]2C1 [cis-Decahydronaphthalene]	-43 °C
C1CC[C@H]2CCCC[C@H]2C1 [cis-decahydronaphthalene]	-43 °C
COc1ccc2c3c1O[C@H]1[C@@H](O)C=C[C@H]4[C@@H](C2)N(C)CC[C@@]341 [codeine]	158 °C
COc1cc2c(c(OC)c1OC)-c1ccc(OC)c(=O)cc1[C@@H](NC(C)=O)CC2 [colchicine]	146 °C
O=C(O)c1cc2ccccc2oc1=O [coumarin-3-carboxylic acid]	192 °C
N#CN [cyanamide]	45 °C
OC1CCCCC1 [cyclohexanol]	21 °C
OC1CCCCCCC1 [cyclooctanol]	15 °C
O=C1CCCCCCC1 [cyclooctanone]	40 °C
O=C1CCCC1 [cyclopentanone]	-51 °C
C1=CCCC1 [cyclopentene]	-135 °C
CC1CC1 [cyclopropylmethane]	-177 °C
C[C@@H](N)C(=O)O [d-alanine]	291 °C

SMILES	melting point
CN(C)c1cccc2c(S(=O)(=O)Cl)cccc12 [dansyl chloride]	72 °C
O=C(c1c(F)c(F)c(F)c(F)c1F)c1c(F)c(F)c(F)c(F)c1F [decafluorobenzophenone]	93 °C
Fc1c(F)c(F)c(-c2c(F)c(F)c(F)c(F)c2F)c(F)c1F [decafluorobiphenyl]	68 °C
C[Si]1(C)O[Si](C)(C)O[Si](C)(C)O[Si](C)(C)O[Si](C)(C)O1 [decamethylcyclopentasiloxane]	-44 °C
CCCCCCCCCC(=O)O [decanoic acid]	31 °C
CCCCCCCCCC#N [decanonitrile]	-15 °C
O=C4\C=C2/[C@]([C@H]1CC[C@@]3([C@@H](C(=O)CO)CC[C@H]3[C@@H]1CC2)C)(C)CC4 [deoxycorticosterone]	142 °C
COc1ccc2c(c1)[C@@]13CCCC[C@@H]1[C@@H](C2)N(C)CC3 [dextromorphan]	110 °C
CCCCCCCCNCCCCCCCC [di-n-octylamine]	14 °C
CC(C)(C)OC(=O)/N=N/C(=O)OC(C)(C)C [di-tert-butyl azodicarboxylate]	91 °C
c1ccc2c(c1)ccc1cc3c(ccc4ccccc43)cc12 [dibenz[a,h]anthracene]	270 °C
c1ccc2c(c1)ccc1cc3c(ccc4ccccc43)cc12 [dibenzo[a,h]anthracene]	266 °C
O=C(/N=N/C(=O)OCc1ccccc1)OCc1ccccc1 [dibenzyl azodicarboxylate]	45 °C
c1ccc(COCc2ccccc2)cc1 [dibenzyl ether]	4 °C
CCCCOc1cc(C(=O)NCCN(CC)CC)c2ccccc2n1 [dibucaine]	64.5 °C
ClCCl [dichloromethane]	-95 °C
CC(Oc1ccc(Cl)cc1Cl)C(=O)O (centres undefined) [dichlorprop]	118 °C
C1CCC2OCCOCCOC3CCCCC3OCCOCCOC2C1 (centres undefined) [dicyclohexano-18-crown-6]	50 °C
C1CCC(NC2CCCCC2)CC1 [dicyclohexylamine]	-2 °C
c1ccc(P(C2CCCCC2)C2CCCCC2)cc1 [dicyclohexylphenylphosphine]	60 °C

SMILES	melting point
CCOC(=O)c1cc(C(=O)OCC)c([N+](=O)[O-])cc1[N+](=O)[O-] [diethyl 4,6-dinitrobenzene-1,3-dicarboxylate]	124 °C
CCOC(=O)/C=C/c1cccc(/C=C/C(=O)OCC)c1 [diethyl (2E,2'E)-3,3'-benzene-1,3-diylbisprop-2-enoate]	54 °C
CCOC(=O)c1ccc(C(=O)OCC)cc1 [diethyl terephthalate]	45 °C
CCOC(=O)c1ccccc1C(=O)OCC [diethyl_phthalate]	-3 °C
ICI [diiodomethane]	6 °C
CC(C)C(=O)C(C)C [diisopropyl ketone]	-69 °C
CC(C)NC(C)C [diisopropylamine]	-61 °C
COCOC [dimethoxymethane]	-105 °C
COC(=O)c1ccc(/C=C\c2ccc(C(=O)OC)cc2)cc1 [dimethyl cis-stilbene-4,4'-dicarboxylate]	113 °C
CSSC [dimethyl disulfide]	-85 °C
COC(=O)C(=O)OC [dimethyl oxalate]	52 °C
COC(=O)c1ccccc1C(=O)OC [dimethyl phthalate]	5 °C
CS(C)=O [dimethyl sulfoxide]	18 °C
Cc1ncc([N+](=O)[O-])n1C [dimetridazole]	140 °C
O=C(Oc1ccccc1)Oc1ccccc1 [diphenyl carbonate]	79 °C
c1ccc(Oc2ccccc2)cc1 [diphenyl ether]	28 °C
O=C(O)C(c1ccccc1)c1ccccc1 [diphenylacetic acid]	147 °C
CCCCCCCCCCCC [dodecane]	-10 °C

Second part, the molecule after the results:

melting point	SMILES
57 °C	CN(C)CCCN1c2ccccc2Sc2ccc(Cl)cc21 [chlorpromazine]
201 °C	C[C@H](CCC(=O)O)[C@H]1CC[C@H]2[C@@H]3[C@H](O)C[C@@H]4C[C@H](O)CC[C@]4(C)[C@H]3C[C@H](O)[C@]12C [cholic acid]
175 °C	N#Cc1coc2ccccc2c1=O [chromone-3-carbonitrile]
133 °C	O=C(O)/C=C/c1ccccc1 [cinnamic acid]
7 °C	ClC/C=C/c1ccccc1 [cinnamyl chloride]
34 °C	OCC=Cc1ccccc1 [cinnamyl_alcohol]
-87 °C	C[C@H]1CC[C@@H](C)CC1 [cis-1,4-dimethylcyclohexane]
-151 °C	C/C=C\CC [cis-2-pentene]
8 °C	CC1=CC(=O)OC1=O [citraconic anhydride]
194 °C	COc1cc(N)c(Cl)cc1C(=O)NC1CCN(Cc2ccccc2)CC1 [clebopride]
211 °C	Clc1ccc(cc1)NC3=CC4=Nc2ccccc2N(C4=C/C3=NC(C)C)c5ccc(Cl)cc5 [clofazimine]
147 °C	Clc1ccccc1C(c1ccccc1)(c1ccccc1)n1ccnc1 [clotrimazole]
184 °C	CN1CCN(C2=Nc3cc(Cl)ccc3Nc3ccccc32)CC1 [clozapine]
222 °C	CC(=O)OCC(=O)[C@@]1(O)CC[C@H]2[C@@H]3CCC4=CC(=O)CC[C@]4(C)[C@H]3C(=O)C[C@@]21C [cortisone acetate]
108 °C	N#CCC(=O)NN [cyanoacetic acid hydrazide]
93 °C	OB(O)C1CC1 [cyclopropylboronic acid]
113 °C	CN1CCC(=C2c3ccccc3C=Cc3ccccc32)CC1 [cyproheptadine]
101 °C	BBBBBBBBBB [decaborane]
-30 °C and -29.8 °C	CCCCCCCCCC [decane]
111 °C	CC(=O)C1C(=O)C=C(C)OC1=O (centres undefined) [dehydroacetic acid]
37 °C	CCCCCCCCCCNCCCCCCCCCC [di-n-decylamine]
-63 °C	CCCNCCC [di-n-propylamine]
233 °C	COc1ccc(Cc2cnc(N)nc2N)cc1OC [diaveridine]

melting point	SMILES
116 °C	CN(C)CCN1C(=O)c2ccccc2N(C)c2ccccc21 [dibenzepin]
157 °C	O=C(O)Cc1ccccc1Nc1c(Cl)cccc1Cl [diclofenac]
29 °C	OCCNCCO [diethanolamine]
81 °C	CCOC(=O)c1cc(C)nn1C(=O)OCC [diethyl 3-methyl-1H-pyrazole-1,5-dicarboxylate]
99 °C	CCOC(=O)C1=C(C(=O)OCC)C(C)N=N1 (centres undefined) [diethyl 5-methyl-1H-pyrazole-3,4-dicarboxylate]
100 °C	CCOC(=O)C(=Nn1nnc2ccccc21)C(=O)OCC [diethyl (1h-benzotriazol-1-yl)iminomalonate]
2 °C	CCOC(=O)C#CC(=O)OCC [diethyl acetylenedicarboxylate]
63 °C	CCOC(=O)C(NC(=O)c1ccccc1)C(=O)OCC [diethyl benzamidomalonate]
53 °C	CCOC(=O)C(NC=O)C(=O)OCC [diethyl formamidomalonate]
-20 °C	CCOC(=O)CCC(=O)OCC [diethyl_succinate]
122 °C	O=C(Cc1ccc(-c2ccccc2)cc1)Nc1ccccn1 [difenpiramide]
210 °C	O=C(O)c1cc(-c2ccc(F)cc2F)ccc1O [diflunisal]
8 °C	COC(=O)CCCCC(=O)OC [dimethyl adipate]
104 °C	COC(=O)/C=C/C(=O)OC [dimethyl fumarate]
69 °C	COC(=O)c1cccc(C(=O)OC)c1 [dimethyl isophthalate]
104 °C	COC(=O)/C=C/C(=O)OC [dimethyl_fumarate]
18 °C	CS(C)=O [dimethyl_sulfoxide]
60 °C	C(#Cc1ccccc1)c1ccccc1 [diphenylacetylene]
52 °C and 53.5 °C and 54 °C	c1ccc(Nc2ccccc2)cc1 [diphenylamine]
25 °C	c1ccc(Cc2ccccc2)cc1 [diphenylmethane]
70 °C	CCN(CC)C(=S)SSC(=S)N(CC)CC [disulfiram]
44 °C	CCCCCCCCCCCC(=O)O [dodecanoic acid]
144 °C	Cn1c(=O)c2c(ncn2CC2OCCO2)n(C)c1=O [doxofylline]
